In article PMC12474757, “Paving the way for future PSMA inhibitors: insights from comparative preclinical evaluations of structure modifications” (EJNMMI Radiopharmacy and Chemistry, 2025):

Legend:
[1] = Octanol/water partition coefficient (log P); type: physicochemical; conditions: octanol/PBS; mean ± SD n = 6
Procedure: Octanol/water partition coefficient (P) was determined as described before (Petrik et al. [2012]). Briefly, 600 µL PBS was added to the total volume of the ⁶⁸Ga-P15. New tube was filled with 50 µL of the above-mentioned solution, 500 µL octanol and 450 µL PBS. Five more samples were prepared in this way and then placed on an orbital shaker for 20 min. The samples were then centrifuged at 15,000 rpm for 1 min. After centrifugation, two samples were taken from each tube, one from the octanol and the other from the aqueous phase. The radioactivity of these samples was measured using an automated gamma computer and the formula log P = log(Aoctanol/AH2O) was employed to calculate log P. The same procedure was applied when determining the partition coefficient of ⁶⁸Ga-P16, ⁶⁸Ga-P19, and ⁶⁸Ga-PSMA-617.

PSMA (LNCaP cells) = target: T1, PSMA (LNCaP cells) (Homo sapiens, UniProt Q04609); test: Competition assay on LNCaP cells against [68Ga]Ga-PSMA-617; type: binding; conditions: for IC50: competition with 5 nM [68Ga]Ga-PSMA-617, 60 min, 37 °C
T1 construct: host or cells: LNCaP
Procedure: The competition assay, LNCaP cells were seeded into poly-L-lysine coated 24-well plates in amount of 0.5 × 10^6 cells/well 24 h prior to the competition assay. The tested ligands (^68Ga-P15, ^68Ga-P16 and ^68Ga-P19) were added to the wells in concentrations 0, 1, 5, 10, 25, 50, 100, 500, 1000 and 5000 nM in triplicates. Afterwards, ^68Ga-labelled PSMA-617 was added to each well so its final concentration was 5 nM. All the ligands in this assay were dissolved in the buffer containing 25 mM Tris-HCl, 5.4 mM KCl, 1.8 mM CaCl2, 0.8 mM MgSO4, 5 mM glucose, and 140 mM NaCl in H2O (pH adjusted to 7.4). ^68Ga-PSMA-617 was incubated on cells for 60 min at 37 °C followed by its removal and washing the cells with PBS. Finally, the cells were disintegrated using 0.1 M NaOH and transferred into the scintillation vials for the gamma counting. The IC50 values were calculated by fitting the data using a nonlinear regression algorithm (GraphPad PRISM 7.0) and the data were assessed by t-test.

T1 sequence (Q04609 whole entry): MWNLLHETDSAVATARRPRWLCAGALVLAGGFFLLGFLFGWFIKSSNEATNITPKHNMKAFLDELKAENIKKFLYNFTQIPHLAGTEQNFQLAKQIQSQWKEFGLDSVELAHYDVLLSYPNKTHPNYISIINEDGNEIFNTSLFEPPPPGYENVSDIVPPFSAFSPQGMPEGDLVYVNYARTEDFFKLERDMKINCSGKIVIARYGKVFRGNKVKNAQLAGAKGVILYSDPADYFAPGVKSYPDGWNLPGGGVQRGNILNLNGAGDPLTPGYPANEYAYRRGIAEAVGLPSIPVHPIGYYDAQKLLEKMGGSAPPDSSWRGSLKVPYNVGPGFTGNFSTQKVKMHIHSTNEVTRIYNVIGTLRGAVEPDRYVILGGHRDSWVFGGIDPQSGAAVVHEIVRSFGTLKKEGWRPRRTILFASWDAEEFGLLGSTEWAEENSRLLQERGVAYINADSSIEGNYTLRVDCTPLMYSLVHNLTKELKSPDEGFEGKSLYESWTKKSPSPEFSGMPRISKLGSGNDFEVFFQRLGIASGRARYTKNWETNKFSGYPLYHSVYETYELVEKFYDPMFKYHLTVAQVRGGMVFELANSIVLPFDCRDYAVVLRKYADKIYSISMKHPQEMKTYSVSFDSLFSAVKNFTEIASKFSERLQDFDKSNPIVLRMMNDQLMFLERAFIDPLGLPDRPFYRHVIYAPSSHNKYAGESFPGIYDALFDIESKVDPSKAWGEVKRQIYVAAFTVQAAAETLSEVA

Structure (SMILES)	Log P [1]	IC50 fold higher than that of [68Ga]Ga-P16 (PSMA (LNCaP cells); competition assay) [fold]	IC50 (PSMA (LNCaP cells)) [nM]
O=C([O-])CN1CCN(CC(=O)[O-])CCN(CC(=O)N[C@H]2CC[C@H](NC(=O)[C@@H](Cc3ccc4ccccc4c3)NC(=O)CC[C@H](NC(=O)N[C@@H](CCC(=O)O)C(=O)O)C(=O)O)CC2)CCN(CC(=O)[O-])CC1.[68Ga+3] [[^68Ga]Ga-P15]	–3,71 ± 0,14	~25	97.3
O=C([O-])CN1CCN(CC(=O)[O-])CCN(CC(=O)N[C@H]2CC[C@H](NC(=O)[C@H](Cc3ccc4ccccc4c3)NC(=O)CC[C@H](NC(=O)N[C@@H](CCC(=O)O)C(=O)O)C(=O)O)CC2)CCN(CC(=O)[O-])CC1.[68Ga+3] [[^68Ga]Ga-P16]	–3,07 ± 0,87	–	4
O=C([O-])CN1CCN(CC(=O)[O-])CCN(CC(=O)NCc2ccc(C(=O)N[C@H](C(=O)NCCCC[C@H](NC(=O)N[C@@H](CCC(=O)O)C(=O)O)C(=O)O)C(c3ccccc3)c3ccccc3)cc2)CCN(CC(=O)[O-])CC1.[68Ga+3] [[^68Ga]Ga-P19]	–3,41 ± 0,13	–	95.6
